Some results are limits rather than exact numbers.

Drawing on ChEMBL document CHEMBL1128817, “Synthesis of bisindolylmaleimide macrocycles” (Bioorg Med Chem Lett, 1995), this text covers IC50 and Ratio for 1 molecule.

Experiment [1] concerns the target Protein kinase C (PKC). Description: Inhibition of rat brain PKC.
Experiment [2] can be described thus: Selectivity ratio of IC50 of PKA to PKC.
A short description of experiment [3]: Selectivity ratio of IC50 of PKCalpha to PKCbeta II.
In experiment [4] the target is Protein kinase C beta type (Homo sapiens, UniProt P05771). Description: Inhibition of Protein kinase C beta 2.
Sequence of Protein kinase C beta type (P05771 whole entry): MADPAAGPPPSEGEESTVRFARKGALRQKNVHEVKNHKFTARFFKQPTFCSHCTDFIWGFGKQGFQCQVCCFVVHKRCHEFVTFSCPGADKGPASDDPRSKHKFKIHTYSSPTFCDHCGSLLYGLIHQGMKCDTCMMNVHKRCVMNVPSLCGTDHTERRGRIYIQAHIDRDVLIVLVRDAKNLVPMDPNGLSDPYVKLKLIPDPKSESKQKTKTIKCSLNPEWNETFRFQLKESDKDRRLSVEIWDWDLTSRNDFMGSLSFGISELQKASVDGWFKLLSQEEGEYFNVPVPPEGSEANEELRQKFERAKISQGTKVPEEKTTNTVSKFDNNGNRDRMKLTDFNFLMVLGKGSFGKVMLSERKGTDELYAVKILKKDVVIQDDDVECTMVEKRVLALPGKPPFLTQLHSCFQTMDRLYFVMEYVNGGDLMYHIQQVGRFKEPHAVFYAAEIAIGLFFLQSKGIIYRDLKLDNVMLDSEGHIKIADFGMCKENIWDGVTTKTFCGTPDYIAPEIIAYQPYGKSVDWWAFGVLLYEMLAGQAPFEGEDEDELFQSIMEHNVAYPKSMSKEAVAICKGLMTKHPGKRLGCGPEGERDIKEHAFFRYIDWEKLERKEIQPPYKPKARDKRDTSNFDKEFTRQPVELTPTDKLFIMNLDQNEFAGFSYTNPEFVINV

`O=C1NC(=O)C2=C1c1cn(c3ccccc13)CCCOC(CO)CCn1cc2c2ccccc21` (centres undefined): the values for the IC50 in experiment [1] and in experiment [4] were 6400 nM and 270 nM, respectively. Further, the Ratio was more than 10000 in experiment [2] and 25 in experiment [3].
